Like-named read-outs stand apart in the source and are kept apart here.
What was measured:
[1] = molecular target: T1, [V390I/Y410E/E274V]-CfEcR (Choristoneura fumiferana, UniProt O77240); type: cell-based; conditions: rac, 3T3 Cells; for RMFI (relative maximum fold induction): relative to GS-E ligand
T1 construct: assay construct b835
Protocol: (§1) Cellular gene switch assays were performed by transiently transfecting the following constructs in mouse embryonic fibroblast cells (NIH3T3). The wild-type D, E and F domains from Choristoneura fumiferana EcR or its V390I/Y410E/E274V mutant were fused to GAL4-DBD and placed under the control of the CMV promoter in the pBIND vector (Promega Corporation, Madison, Wis., USA). The DEF domains of EcRs shown were amplified using primers designed based on 20-25 nt sequences at the 5′ and 3′ ends. Restriction enzyme sites EcoR I/BamH I and Xba I were added to 5′ and 3′ primers respectively. The PCR products were digested with appropriate restriction enzymes and cloned into pBIND vector. The EcR LBDs cloned into pBIND vector were verified by sequencing. A chimeric RXR from Homo sapiens RXRP and Locusta migratoria RXR, fused to VP16-AD and placed under the control of an SV40e promoter, was constructed as previously described (Kumar P & Katakam A in Gene Transfer, Friedmann T and Rossi J, eds, pp. 643-651 (2007), Cold Spring Harbor Laboratory Press, Cold Spring Harbor, N.Y.). The inducible luciferase reporter plasmid pFRLuc (Stratagene Cloning Systems, La Jolla, Calif., USA), contains five copies of the GAL4 response element and a synthetic minimal promoter.
(§2) NIH3T3 cells were maintained at 37′C and 5% CO2 in Dulbecco's modified Eagle's medium (DMEM) supplemented with 10% bovine calf serum, both obtained from Mediatech Inc., Manassas, Va. Cells were planted in a 96-well plate at a density of 2,500 cells/well in 50 μL of growth medium. The following day cells were first treated with 35 μL of serum-free DMEM containing dimethyl sulfoxide (DMSO; control) or a DMSO solution containing ligand. Cells were then transfected with 15 μl of serum-free DMEM containing 0.04 μg of EcR construct, 0.04 ug of RXR construct, and 0.16 μg of luciferase reporter construct per well, using SuperFect™ transfection reagent (Qiagen Inc., Valencia, Calif., USA) according to the manufacturer's instructions. Ligands were tested at 8 doses from 0.01-33 μM and the final DMSO concentration was 0.33% in both control and treatment wells. After a 48 hour post-treatment and transfection incubation, the cells were assayed for luciferase activity using the Bright-Glo™ Luciferase Assay System (Promega Corporation, Madison, Wis., USA) following the manufacturer's instructions. EC50 values were measured minimally in duplicate.
(§3) Luciferase reporter gene expression was measured 48 h after cell treatment using Bright-Glo™ Luciferase Assay System from Promega (E2650). Luminescence was detected at room temperature using a Dynex MLX microtiter plate luminometer.
(§4) Each assay was conducted in two separate wells, and the two values were averaged. Fold inductions were calculated by dividing relative light units (“RLU”) in ligand treated cells with RLU in DMSO treated cells. EC50s were calculated from dose response data using a three-parameter logistic model. Relative Max FI was determined as the maximum fold induction of the tested ligand (an embodiment of the invention) observed at any concentration relative to the maximum fold induction of GS™-E ligand (3,5-dimethyl-benzoic acid N-tert-butyl-N′-(2-ethyl-3-methoxy-benzoyl)-hydrazide) observed at any concentration.

[2] = molecular target: wild-type Choristoneura fumiferana EcR (D, E and F domains) (Choristoneura fumiferana, UniProt O77240); type: cell-based; conditions: rac, WT-CtEcR, 3T3 Cells; for RMFI (relative maximum fold induction): relative to GS-E ligand
Protocol: as §1, §2, §3, §4

SMILES | EC50 ([1]; read-out: EC50) | RMFI (relative maximum fold induction) [1] | EC50 ([2]; read-out: EC50) | RMFI (relative maximum fold induction) [2] | EC50 [1] | EC50 [2]
CCCC(N(NC(=O)c1cccc(OC)c1CC)C(=O)c1cc(C)cc(C)c1)C(C)(C)C (racemic) [rac-2] | 3.9 nM | 0.85 | ~100 nM | 0.60 | – | –
CCCC(N(NC(=O)c1c(Cl)cccc1Cl)C(=O)c1cc(C)cc(C)c1)C(C)(C)C (racemic) [rac-3] | 12.2 nM | 0.97 | 100 nM | – | – | –
CCCC(N(NC(=O)c1ccccc1OC)C(=O)c1cc(C)cc(C)c1)C(C)(C)C (racemic) [rac-4] | ~300 nM | 0.72 | ~2000 nM | 0.32 | – | –
CCCC(N(NC(=O)c1ccccc1F)C(=O)c1cc(C)cc(C)c1)C(C)(C)C (racemic) [rac-5] | 1.1 nM | 0.67 | 81 nM | 0.59 | – | –
CCCC(N(NC(=O)c1ccccc1Cl)C(=O)c1cc(C)cc(C)c1)C(C)(C)C (racemic) [rac-6] | 1.2 nM | 0.95 | 59 nM | 0.72 | – | –
CCCC(N(NC(=O)c1ccccc1Br)C(=O)c1cc(C)cc(C)c1)C(C)(C)C (racemic) [rac-7] | ~3 nM | 1.28 | 86 nM | 0.63 | – | –
CCCC(N(NC(=O)c1cccc(C)c1)C(=O)c1cc(C)cc(C)c1)C(C)(C)C (racemic) [rac-8] | 16.2 nM | 0.86 | 193 nM | 0.88 | – | –
CCCC(N(NC(=O)c1cccc(OC)c1)C(=O)c1cc(C)cc(C)c1)C(C)(C)C (racemic) [rac-9] | 7.1 nM | 0.63 | 304 nM | 0.84 | – | –
CCCC(N(NC(=O)c1cccc(Cl)c1)C(=O)c1cc(C)cc(C)c1)C(C)(C)C (racemic) [rac-10] | 23.9 nM | 0.86 | ~100 nM | 0.50 | – | –
CCCC(N(NC(=O)c1ccc(C)cc1)C(=O)c1cc(C)cc(C)c1)C(C)(C)C (racemic) [rac-11] | 6.3 nM | 0.73 | 89 nM | 0.66 | – | –
CCCC(N(NC(=O)c1ccc(CC)cc1)C(=O)c1cc(C)cc(C)c1)C(C)(C)C (racemic) [rac-12] | ~0.6 nM | 0.96 | ~20 nM | 0.79 | – | –
CCCC(N(NC(=O)c1ccc(OC)cc1)C(=O)c1cc(C)cc(C)c1)C(C)(C)C (racemic) [rac-13] | ~5 nM | 0.71 | ~100 nM | 0.54 | – | –
CCCC(N(NC(=O)c1ccc(Cl)cc1)C(=O)c1cc(C)cc(C)c1)C(C)(C)C (racemic) [rac-14] | ~20 nM | 0.83 | ~200 nM | 0.46 | – | –
CCCC(N(NC(=O)c1c(F)cccc1F)C(=O)c1cc(C)cc(C)c1)C(C)(C)C (racemic) [rac-15] | ~1 nM | 0.92 | 94 nM | 0.68 | – | –
CCCC(N(NC(=O)c1c(Cl)cccc1Cl)C(=O)c1cc(C)cc(C)c1)C(C)(C)C (racemic) [rac-16, rac-3,5-dimethyl-benzoic acid N-(1-tert-butyl-butyl)-N′-(2,6-dichloro-benzoyl)-hydrazide] | – | 0.73 | – | 0.43 | ~30 nM | ~300 nM

Reference: patent US20200270225A1, “Chiral Diacylhydrazine Ligands for Modulating the Expression of Exogenous Genes via an Ecdysone Receptor Complex” (Intrexon Corporation, priority 2007, published 2020)
